Measured values as given in the CheMixHub ionic liquid set.

Experiment: xn = mol fraction of the nth substance listed

O=C(CO)[C@@H](O)[C@H](O)[C@@H](O)CO + CCCCCCCCCCCCCCCC[N+](C)(C)C.[Br-] + O
viscosity [mPa·s], 100 kPa
Conditions | 298.15 K | 308.15 K | 318.15 K
x2 = 7.19e-06, x1 = 0.002005 | 0.946 | 0.782 | 0.65
x2 = 7.19e-06, x1 = 0.002298 | 0.954 | 0.788 | 0.655
x2 = 7.19e-06, x1 = 0.002748 | 0.965 | 0.797 | 0.662
x2 = 7.2e-06, x1 = 0.0007582 | 0.915 | 0.757 | 0.629
x2 = 7.2e-06, x1 = 0.001199 | 0.926 | 0.766 | 0.637
x2 = 7.2e-06, x1 = 0.001449 | 0.932 | 0.771 | –
x2 = 1.438e-05, x1 = 0.00232 | 0.96 | 0.793 | 0.658
x2 = 1.438e-05, x1 = 0.002732 | 0.971 | 0.802 | 0.665
x2 = 1.439e-05, x1 = 0.00146 | 0.937 | – | –
x2 = 1.439e-05, x1 = 0.001979 | 0.951 | 0.786 | 0.652
x2 = 1.44e-05, x1 = 0.0008896 | 0.922 | 0.763 | 0.633
x2 = 1.44e-05, x1 = 0.001296 | 0.933 | 0.771 | 0.64
x2 = 2.156e-05, x1 = 0.002717 | 0.975 | 0.805 | 0.667
x2 = 2.157e-05, x1 = 0.002351 | 0.965 | 0.797 | 0.66
x2 = 2.158e-05, x1 = 0.001965 | 0.954 | 0.789 | 0.653
x2 = 2.159e-05, x1 = 0.001383 | 0.938 | 0.776 | 0.642
x2 = 2.159e-05, x1 = 0.001661 | 0.946 | 0.782 | 0.647
x2 = 2.16e-05, x1 = 0.001025 | 0.928 | 0.768 | 0.636

O + CCCCCCCCCCCCCCCC[n+]1ccccc1.O=C([O-])C(O)c1ccccc1
101 kPa, x2 = 0
Conditions | electrical conductivity [S/m]
293.15 K | 0.00012
298.15 K | 0.00015
303.15 K | 0.00016
308.15 K | 0.00017
313.15 K | 0.00019

O + CCCCCCCCCCCCCCCC[n+]1ccccc1.O=C([O-])C(O)c1ccccc1 + CC(C)C[C@H](N)C(=O)O
101 kPa, x2 = 0, x3 = 0
Conditions | electrical conductivity [S/m]
293.15 K | 0.00012
298.15 K | 0.00015
303.15 K | 0.00016
308.15 K | 0.00017
313.15 K | 0.00019

O + CCCCCCCCCCCCCCCC[n+]1ccccc1.O=C([O-])C(O)c1ccccc1 + CC(C)[C@H](N)C(=O)O
101 kPa, x2 = 0, x3 = 0
Conditions | electrical conductivity [S/m]
293.15 K | 0.00012
298.15 K | 0.00015
303.15 K | 0.00016
308.15 K | 0.00017
313.15 K | 0.00019

O + CCCCCCCCCCCCCCCC[n+]1ccccc1.O=C([O-])C(O)c1ccccc1 + C[C@H](N)C(=O)O
101 kPa, x2 = 0, x3 = 0
Conditions | electrical conductivity [S/m]
293.15 K | 0.00012
298.15 K | 0.00015
303.15 K | 0.00016
308.15 K | 0.00017
313.15 K | 0.00019

O + CCCCCCCCCCCCCCCC[n+]1ccccc1.O=C([O-])C(O)c1ccccc1 + NCC(=O)NCC(=O)O
101 kPa, x2 = 0, x3 = 0
Conditions | electrical conductivity [S/m]
293.15 K | 0.00012
298.15 K | 0.00015
303.15 K | 0.00016
308.15 K | 0.00017
313.15 K | 0.00019

O + CCCCCCCCCCCCCCCC[n+]1ccccc1.O=C([O-])C(O)c1ccccc1 + NCC(=O)O
101 kPa, x2 = 0, x3 = 0
Conditions | electrical conductivity [S/m]
293.15 K | 0.00012
298.15 K | 0.00015
303.15 K | 0.00016
308.15 K | 0.00017
313.15 K | 0.00019

O + CCCCCCCCCCCCCCCC[n+]1ccccc1.O=C([O-])c1ccccc1O
101 kPa, x2 = 0
Conditions | electrical conductivity [S/m]
293.15 K | 0.000135
298.15 K | 0.000158
303.15 K | 0.000178
308.15 K | 0.000197
313.15 K | 0.000246

O + CCCCCCCCCCCCCCCC[n+]1ccccc1.[Cl-]
Conditions | electrical conductivity [S/m]
308.15 K, 101 kPa, x2 = 0 | 6.7e-05

C[C@H](N)C(=O)O + CCCCCCCCCCCCCCCC[n+]1ccccc1.[Cl-] + O
308.15 K, 101 kPa
Conditions | electrical conductivity [S/m]
x1 = 2.018e-05, x2 = 0 | 0.00076
x1 = 2.252e-05, x2 = 0 | 5.6e-05
x1 = 0.0009272, x2 = 0 | 7.5e-05
x1 = 0.001838, x2 = 0 | 0.000251

CCC[N+]1(C)CCCC1.O=S(=O)([N-]S(=O)(=O)C(F)(F)F)C(F)(F)F + CCCCCCCCCCCCCC[P+](CCCCCC)(CCCCCC)CCCCCC.O=S(=O)([N-]S(=O)(=O)C(F)(F)F)C(F)(F)F
313.15 K, 101 kPa, x2 = 0.75
Conditions | electrical conductivity [S/m] | viscosity [mPa·s]
– | 0.0308 | 135

O + CCCCCCCCCCCCCC[n+]1ccccc1.O=C([O-])C(O)c1ccccc1
101 kPa, x2 = 0
Conditions | electrical conductivity [S/m]
293.15 K | 0.00012
298.15 K | 0.00015
303.15 K | 0.00016
308.15 K | 0.00017
313.15 K | 0.00019

O + CCCCCCCCCCCCCC[n+]1ccccc1.O=C([O-])C(O)c1ccccc1 + CC(C)C[C@H](N)C(=O)O
101 kPa, x2 = 0, x3 = 0
Conditions | electrical conductivity [S/m]
293.15 K | 0.00012
298.15 K | 0.00015
303.15 K | 0.00016
308.15 K | 0.00017
313.15 K | 0.00019

O + CCCCCCCCCCCCCC[n+]1ccccc1.O=C([O-])C(O)c1ccccc1 + CC(C)[C@H](N)C(=O)O
101 kPa, x2 = 0, x3 = 0
Conditions | electrical conductivity [S/m]
293.15 K | 0.00012
298.15 K | 0.00015
303.15 K | 0.00016
308.15 K | 0.00017
313.15 K | 0.00019
